From US4539149A, “β-Lactam antibacterial agents” (Beecham Group p.l.c., priority 1981, dated 1985)
≈ marks a conversion by molar mass, not a printed value. Where a name gives a salt, the structure may show the parent alone.

System: P. mirabilis 889
Assay: MIC against P. mirabilis 889
Type: cell-based
Settings: for MIC: Proteus mirabilis, 889, P. mirabilis 889

MIC	MIC against P. mirabilis 889	SMILES
1 µg/mL		CN(C(=O)C=Cc1ccccc1)C(=O)N[C@@H](C(=O)N[C@]1(NC=O)C(=O)N2[C@@H](C(=O)O)C(C)(C)S[C@@H]21)c1ccccc1 [Example 10, 6α-Formamido-6β-[D-2-(3-cinnamoyl-3-methylureido)-2-phenylacetamido]penicillanic acid, sodium salt]
100 µg/mL		CCN1CCN(C(=O)N[C@H](C(=O)N[C@]2(NC=O)C(=O)N3C(C(=O)O)=C(COC(C)=O)CS[C@@H]32)c2ccc(O)cc2)C(=O)C1=O [Example 40, 7β-[L-2-[(4-Ethyl-2,3-dioxopiperazin-1-yl)carbonylamino]-2-(4-hydroxyphenyl)acetamido]-7α-formamidocephalosporanic acid, sodium salt]
0.1 µg/mL		CCN1CCN(C(=O)N[C@@H](C(=O)N[C@]2(NC=O)C(=O)N3C(C(=O)O)=C(COC(C)=O)CS[C@@H]32)c2cccs2)C(=O)C1=O [Example 44, 7β-[D-2-[(4-Ethyl-2,3-dioxopiperazin-1-yl)carbonylamino]-2-(thien-2-yl)acetamido]-7α-formamido-cephalosporanic acid, sodium salt]
50 µg/mL (≈ 122 µM)		CC1(C)S[C@H]2N(C(=O)[C@@]2(NC=O)NC(=O)[C@H](N)c2ccc(O)cc2)[C@H]1C(=O)O [Example 9, 6α-Formamido-6β-[D-2-amino-2-(4-hydroxyphenyl)acetamido]penicillanic acid]
2.5 µg/mL		CC1(C)S[C@H]2N(C(=O)[C@@]2(NC=O)NC(=O)[C@H](NC(=O)[C@@H](Cc2ccccc2)NC(N)=O)c2ccc(O)cc2)[C@H]1C(=O)O [Example 21, 6β-[D-2-(D-2-Carbamoylamino-3-phenylpropionamido)-2-(4-hydroxyphenyl)acetamido]-6α-formamidopenicillanic acid, sodium salt]
30 µg/mL		CC(=O)OCC1=C(C(=O)O)N2C(=O)[C@@](NC=O)(NC(=O)/C(=N\OC(C)(C)C(=O)O)c3csc(N)n3)[C@H]2SC1 [Example 67, 7β-[(Z)-2-(2-Aminothiazol-4-yl)-2-(1-carboxy-1-methylethoxyimino)acetamido]-7α-formamidocephalosporanic acid disodium salt]
50 µg/mL		CC1(C)S[C@H]2N(C(=O)[C@@]2(NC=O)NC(=O)[C@H](NC(=O)Nc2coc3ccccc3c2=O)c2ccc(O)cc2)[C@H]1C(=O)O [Example 48, 6β-[D-2-[3-(4-Oxo-4H-1-benzopyran-3-yl)ureido]-2-(4-hydroxyphenyl)acetamido]-6α-formamidopenicillanic acid, sodium salt]
10 µg/mL		CC1(C)S[C@H]2N(C(=O)[C@@]2(NC=O)NC(=O)C(NC(=O)c2cc3ccccc3oc2=O)c2ccc(O)cc2)[C@H]1C(=O)O (stereo partly drawn) [Example 22, 6β-[2-[(Coumarin-3-yl)carbonylamino]-2-(4-hydroxyphenyl)acetamido]-6α-formamidopenicillanic acid, sodium salt]
100 µg/mL		CC(=O)OCC1=C(C(=O)O)N2C(=O)[C@@](NC=O)(NC(=O)C(C(=O)O)c3ccsc3)[C@H]2SC1 (stereo partly drawn) [Example 43, 7β-[2-Carboxy-2-(thien-3-yl)acetamido]-7α-formamido cephalosporanic acid, disodium salt]
	125 µg/mL	CC(=O)OCC1=C(C(=O)O)N2C(=O)[C@@](NC=O)(NC(=O)C(NC(N)=O)c3cccs3)[C@H]2SC1 (single isomer, unassigned) [Example 52 (Isomer 1), 7β-[2-[(Aminocarbonyl)amino]-2-(thien-2-yl)acetamido]-7α-formamidocephalosporanic acid, sodium salt (Isomer 1)]
50 µg/mL (≈ 109 µM)		O=CN[C@@]1(NC(=O)Cc2cccs2)C(=O)N2C(C(=O)[O-])=C(C[n+]3ccccc3)CS[C@@H]21 [Example 60, 7α-Formamido-3-(pyridiniummethyl)-7β-(thien-2-ylacetamido)-ceph-3-em-4-carboxylate]
0.2 µg/mL		CCN1CCN(C(=O)N[C@@H](C(=O)N[C@]2(NC=O)C(=O)N3C(C(=O)O)=C(COC(C)=O)CS[C@@H]32)c2ccccc2)C(=O)C1=O [Example 36, 7β-[D-2-[(4-Ethyl-2,3-dioxopiperazin-1-yl)carbonylamino]-2-phenylacetamido]-7α-Formamidocephalosporanic acid, sodium salt]
125 µg/mL		CCN1CCN(C(=O)N[C@H](C(=O)N[C@]2(NC=O)C(=O)N3[C@@H](C(=O)O)C(C)(C)S[C@@H]32)c2ccc(O)cc2)C(=O)C1=O [Example 6, 6α-Formamido-6β-[L-2-[(4-ethyl-2,3-dioxopiperazin-1-yl)carbonylamino]-2-(4-hydroxyphenyl)acetamido]penicillanic acid, sodium salt]
2.5 µg/mL		CN(C(=O)C=Cc1ccccc1)C(=O)N[C@@H](C(=O)N[C@]1(NC=O)C(=O)N2[C@@H](C(=O)O)C(C)(C)S[C@@H]21)c1ccc(O)cc1 [Example 17, 6α-Formamido-6β-[D-2-(3-cinnamoyl-3-methylureido)-2-(4-hydroxyphenyl)acetamido]penicillanic acid, sodium salt]
2.5 µg/mL		CN(C(=O)N[C@@H](C(=O)N[C@]1(NC=O)C(=O)N2[C@@H](C(=O)O)C(C)(C)S[C@@H]21)c1ccccc1)C(=O)c1cccs1 [Example 13, 6α-Formamido-6β-[D-2-[3-methyl-3-(2-thienylcarbonyl)ureido]-2-phenylacetamido]penicillanic acid, sodium salt]
100 µg/mL		CC1(C)S[C@H]2N(C(=O)[C@@]2(NC=O)NC(=O)[C@H](NC(=O)Nc2cc3ccccc3oc2=O)c2ccc(O)cc2)[C@H]1C(=O)O [Example 47, 6β-[D-2-[3-(Coumarin-3-yl)ureido]-2-(4-hydroxyphenyl)acetamido]-6α-formamidopenicillanic acid, sodium salt]
0.5 µg/mL		CC1(C)S[C@H]2N(C(=O)[C@@]2(NC=O)NC(=O)[C@H](NC(=O)N2CCNC2=O)c2ccc(O)cc2)[C@H]1C(=O)O [Example 16, 6α-Formamido-6β-[D-2-(2-oxoimidazolidin-1-ylcarbonylamino)-2-(4-hydroxyphenyl)acetamido]penicillanic acid, sodium salt]
0.1 µg/mL		CCN1CCN(C(=O)N[C@@H](C(=O)N[C@]2(NC=O)C(=O)N3C(C(=O)O)=C(COC(C)=O)CS[C@@H]32)c2ccc(O)c(O)c2)C(=O)C1=O [Example 69, 7β-[D-2-[(4-Ethyl-2,3-dioxopiperazin-1-yl)carbonylamino]-2-(3,4-dihydroxyphenyl)acetamido]-7α-formamidocephalosporanic acid, sodium salt]
	25 µg/mL	CC(=O)OCC1=C(C(=O)O)N2C(=O)[C@@](NC=O)(NC(=O)C(NC(N)=O)c3cccs3)[C@H]2SC1 (single isomer, unassigned) [Example 52 (Isomer 2), 7β-[2-[(Aminocarbonyl)amino]-2-(thien-2-yl)acetamido]-7α-formamidocephalosporanic acid, sodium salt (Isomer 2)]
0.2 µg/mL		CCN1CCN(C(=O)N[C@@H](C(=O)N[C@]2(NC=O)C(=O)N3C(C(=O)O)=C(COC(C)=O)CS[C@@H]32)c2ccc(O)cc2)C(=O)C1=O [Example 39, 7β-[D-2-[(4-Ethyl-2,3-dioxopiperazin-1-yl)carbonylamino]-2-(4-hydroxyphenyl)acetamido]-7α-formamidocephalosporanic acid, sodium salt]
100 µg/mL		CCN1CCN(C(=O)N[C@H](C(=O)N[C@]2(NC=O)C(=O)N3[C@@H](C(=O)O)C(C)(C)S[C@@H]32)c2ccc(O)c(O)c2)C(=O)C1=O [Example 58, 6β-[L-2-[(4-ethyl-2,3-dioxopiperazin-1-yl)carbonyllamino]-2-(3,4-dihydroxyphenyl)acetamido]-6α-formamidopenicillanic acid, sodium salt]
0.25 µg/mL		CC1(C)S[C@H]2N(C(=O)[C@@]2(NC=O)NC(=O)[C@H](NC(=O)N2CCN(N=Cc3ccco3)C2=O)c2ccc(O)cc2)[C@H]1C(=O)O [Example 20, 6α-Formamido-6β-[D-2-[[3-(furan-2-ylmethyleneamino)-2-oxoimidazolidin-1-yl]carbonylamino]-2-(4-hydroxyphenyl)acetamido]penicillanic acid, sodium salt]
0.2 µg/mL		CCN1CCN(C(=O)N[C@@H](C(=O)N[C@]2(NC=O)C(=O)N3[C@@H](C(=O)O)C(C)(C)S[C@@H]32)c2ccccc2)C(=O)C1=O [Example 4, 6α-Formamido-6β-[D-2-[(4-ethyl-2,3-dioxopiperazin-1-yl)carbonylamino]-2-phenylacetamido]penicillanic acid, sodium salt]
0.5 µg/mL		CCN1CCN(C(=O)N[C@H](C(=O)N[C@]2(NC=O)C(=O)N3[C@@H](C(=O)O)C(C)(C)S[C@@H]32)c2cccs2)C(=O)C1=O [Example 27, 6β-[L-2-[(4-Ethyl-2,3-dioxopiperazin-1-yl)carbonylamino]-2-(thien-2-yl)acetamido]-6α-formamidopenicillanic acid sodium salt]
0.1 µg/mL		CC1(C)S[C@H]2N(C(=O)[C@@]2(NC=O)NC(=O)[C@H](NC(=O)N2CCN(S(C)(=O)=O)C2=O)c2ccc(O)cc2)[C@H]1C(=O)O [Example 24, 6α-Formamido-6β-[D-2-(4-hydroxyphenyl)-2-[(3-methylsulphonyl-2-oxoimidazolidin-1-yl)carbonylamino]acetamido]penicillanic acid, sodium salt]
5 µg/mL		CC1(C)S[C@H]2N(C(=O)[C@@]2(NC=O)NC(=O)[C@H](NC(=O)Nc2cnc(Nc3ccccc3)nc2O)c2ccc(O)cc2)[C@H]1C(=O)O [Example 32, 6α-Formamido-6β-[D-2-(4-hydroxyphenyl)-2-[3-[4-hydroxy-2-(phenylamino)pyrimidin-5-yl]ureido]acetamido]penicillanic acid, sodium salt]

SMILES	MIC	MIC against P. mirabilis 889
CCN1CCN(C(=O)N[C@@H](C(=O)N[C@]2(NC=O)C(=O)N3[C@@H](C(=O)O)C(C)(C)S[C@@H]32)c2ccc(OC(C)=O)c(OC(C)=O)c2)C(=O)C1=O [Example 18, 6β-[D-2-[(4-Ethyl-2,3-dioxopiperazin-1-yl)carbonylamino]-2-(3,4-diacetoxyphenyl)acetamido]-6α-formamidopenicillanic acid, sodium salt]	0.5 µg/mL	
CCN1CCN(C(=O)N[C@@H](C(=O)N[C@]2(NC=O)C(=O)N3C(C(=O)O)=C(COC(C)=O)CS[C@@H]32)c2ccc(OC(C)=O)c(OC(C)=O)c2)C(=O)C1=O [Example 41, 7β-[D-2-[(4-Ethyl-2,3-dioxopiperazin-1-yl)carbonylamino]-2-(3,4-diacetoxyphenyl)acetamido]-7α-formamidocephalosporanic acid, sodium salt]	0.1 µg/mL	
